Laboratory results reported in US20020115642A1, “Beta-lactam antibiotics” (priority 2000, published 2002).
Converted amounts (≈) assume the structure as drawn. Read-outs that look alike come from different tables or passages of the source.

Legend:
[1] = tested on: Vancomycin-resistant E. faecalis or E. faecium; assay: Susceptibility testing (MIC, modified NCCLS method); assay type: cell-based, Enterococcus faecalis, Enterococcus faecium; conditions: VRE (5)
Method: (§1) The NCCLS (National Committee for Clinical Laboratory Standards) method to determine MIC's of antimicrobial compounds was modified for high-throughput screening. All stocks of tested compounds were prepared in either water or in dimethylsulfoxide (DMSO), depending on the solubility. […] Briefly 20 2-fold serial dilutions of testing compounds from the highest concentration were made in a 384-well microtiter plate. Each well was inoculated with testing bacteria in broth to a final concentration of approximately 1-1.5×10^6 cells/ml. Bacterial growth was determined by the increase of optical density at 600 nm using a microplate reader (Tecan SpectraFluor Plus).

[2] = tested on: Gram-negative species; assay: MIC comparison with reference antibiotics, Gram-negative species; assay type: cell-based
Method: as §1

[3] = tested on: E. cloacae; assay: Susceptibility testing (MIC, modified NCCLS method); assay type: cell-based, Enterobacter cloacae; conditions: E. cloacae (1)
Procedure, shortened: (§2)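 Stocks are made in water or DMSO depending on solubility. Twofold serial dilutions (20 points) from the top concentration are inoculated with bacteria in broth at about 1-1.5×10^6 cells/ml. MIC is taken from OD600-based growth, following an NCCLS method adapted for screening.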

[4] = tested on: P. aeruginosa; assay: as above; assay type: cell-based, Pseudomonas aeruginosa
Procedure, shortened: as §2

[5] = tested on: S. epidermidis; assay: as above; assay type: cell-based, Staphylococcus epidermidis
Method: as §1

[6] = tested on: S. pneumoniae; assay: as above; assay type: cell-based, Streptococcus pneumoniae; conditions: S. pneumoniae (3)
Method: as §1

[7] = tested on: M. catarrhalis; assay: as above; assay type: cell-based, Moraxella catarrhalis; conditions: M. catarrhalis (4)
Method: as §1

[8] = tested on: H. influenzae; assay: as above; assay type: cell-based, Haemophilus influenzae; conditions: H. influenzae (4)
Method: as §1

[9] = tested on: S. aureus clinical isolates; assay: MIC by agar dilution, recent clinical isolates (UCSD Medical Center); assay type: cell-based, Staphylococcus aureus; conditions: MRSA (17)
[10] = tested on: E. coli N; assay: Susceptibility testing (MIC, modified NCCLS method); assay type: cell-based, Escherichia coli; conditions: Escherichia coli, E. coli, BLA neg.
Procedure, shortened: as §2

[11] = tested on: E. coli/TEM-1; assay: as above; assay type: cell-based, Escherichia coli; conditions: for MIC: Escherichia coli
Procedure, shortened: as §2

[12] = tested on: UDP-glucuronosyltransferase; assay: Glucuronidation assay; assay type: in vitro ADME, human
Method: Assays were conducted as outlined in Example 15, using 100 μM Compound (9), triclosan or cephalothin incubated with 100 μg human liver microsome at 37° C. for 1 hour. The reactants were analyzed on TLC plate, and glucuronidated compounds were visualized by MolecularDynamics Storm 820.
Glucuronidation assay was performed based on modified procedure from Bansal and Gessner (1980) Anal. Biochem. 109:321-329. Reactions were performed in 50 mM Tris buffer, pH 7.6, containing 10 mM MgCl2, ImM UDPGA, 0.04 μCi of ^14C-UDPGA, 0.1 mM substrate, and 100 μg human liver microsome. The final volume was 100 μL. Reactions were incubated at 37° C. for one hour and the reactants extracted with 200 μL of 100% ethanol. The protein was removed by centrifugation at 12,000×g for 5 minutes in an Eppendorf centrifuige. The supernatant was dried and resuspended in 30 μL of 100% methanol and spotted on a Whatman glass-backed linear k TLC plate. Chromatography was performed in a mixture of 1-butanol/acetone/acetic acid/water (35:35:10:20). The TLC plate was then dried and exposed to phosphor imager overnight, then monitored by imaging (MolecularDynamics Storm 820).

[13] = tested on: E. aerogenes; assay: Susceptibility testing (MIC, modified NCCLS method); assay type: cell-based, Enterobacter aerogenes; conditions: E. aerogenes (5)
Procedure, shortened: as §2

[14] = tested on: S. aureus clinical isolates; assay: MIC by agar dilution, recent clinical isolates (UCSD Medical Center); assay type: cell-based, Staphylococcus aureus; conditions: MSSA (14)
Method: Growth of all 14 isolates of MSSA was inhibited by Compound (9) at the lowest tested concentration (0.08 μg/ml) (See Table 6, below).

[15] = biological target: T1, TEM-1 β-lactamase (Escherichia coli, UniProt P62593); assay type: biochemical; conditions: 20 minutes, […] TEM-1, 4 μM solution of Compound (9)
T1 construct: His tag (N); made in house; host or cells: Escherichia coli BL21(DE3)
T1 sequence (P62593 24-286 limits assumed): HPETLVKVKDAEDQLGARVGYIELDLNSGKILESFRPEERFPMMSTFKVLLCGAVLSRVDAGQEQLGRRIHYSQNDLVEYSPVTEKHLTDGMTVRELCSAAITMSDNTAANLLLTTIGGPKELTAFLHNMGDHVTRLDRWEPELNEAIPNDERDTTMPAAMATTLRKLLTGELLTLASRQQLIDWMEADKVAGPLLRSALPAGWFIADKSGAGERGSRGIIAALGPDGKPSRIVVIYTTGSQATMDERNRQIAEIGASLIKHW
Method: Assays were conducted at 37° C. in 100 mM potassium phosphate buffer pH 7.2 with 1 mM EDTA and 0.5 μg/ml TEM-1 β-lactamase. […] Hydrolysis product (triclosan) was separated from Compound (9) by use of an HP1100 series HPLC equipped with an Alltech Adsorbosphere HS(C18)5u 150 mm×4.6 mm column. The mobile phase was isocratic containing 55% acetonitrile and 0.1% TFA producing retention times of 20.4 minutes and 24.1 minutes for triclosan and Compound (9), respectively. Quantitation of triclosan was based on the A260 integrated peak area as compared to triclosan standards.
A typical TEM-1 β-lactamase assay is conducted at 37° C. in 1.4 ml of 100 mM potassium phosphate pH 7.2, 1 mM; ethylenediamine tetraacetic acid (EDTA) and 25 nM TEM-1 β-lactamase. A test compound is assayed at several concentrations, for example at 5 and 20 μM. […] Substrates and products are separated and quantitated via HPLC (described below). […]
Kinetic parameters of test compounds (kcat and Km) are determined from a simultaneous progress curve analysis of substrate consumption and product formation (when both are observable) as fit to the equations: […]
Hydrolysis product (triclosan) was separated from Compound (9) by use of an HP1100 series HPLC equipped with an Alltech Adsorbosphere HS(C18)5μ150 mm×4.6 mm column. […] Quantitation of triclosan was based on the A260 integrated peak area as compared to triclosan standards.

[16] = tested on: Staphylococcus aureus; assay: Susceptibility testing (MIC, modified NCCLS method); assay type: cell-based; conditions: for MIC: Staphylococcus aureus
Procedure, shortened: as §2

[17] = tested on: E. faecium; assay: as above; assay type: cell-based, Enterococcus faecium; conditions: Enterococcus faecium; E. faecium (6); read-out: GM* MIC (geometric mean)
Method: as §1

[18] = E. aerogenes, E. cloacae and K. pneumoniae

O=C(Cc1cccs1)N[C@@H]1C(=O)N2C(C(=O)O)=C(COc3cc(Cl)ccc3Oc3ccc(Cl)cc3Cl)CS[C@H]12 [Compound 9, 3-(2-(2,4-Dichlorophenoxy)-5-chlorophenoxy)methyl-7-(2-thienylacetamido)-3-cephem-4-carboxylic acid]
MIC ([1]; Enterococcus, read-out: GM* MIC (geometric mean)): 10300 ng/mL (≈ 16500 nM)
MIC range [1]: 8000 to 16000 ng/mL
fold less active than imipenem [2, 18]: 4 fold
fold more active than cephalothin or ampicillin [2, 18]: at least 33 fold
fold stronger than ampicillin and cephalothin ([2]; M. catarrhalis and H. influenzae, geometric mean MIC): at least 1000 fold
MIC range [3]: 1000 ng/mL (≈ 1600 nM)
MIC ([3]; Enterobacter cloacae, read-out: GM* MIC (geometric mean)): 1000 ng/mL (≈ 1600 nM)
activity against P. aeruginosa [4]: no activity
MIC range ([4]; P. aeruginosa (7)): >15600 ng/mL
MIC ([4]; Pseudomonas aeruginosa, P. aeruginosa (7), read-out: GM* MIC (geometric mean)): > 15600 ng/mL
MIC range ([5]; S. epidermidis (5)): 0.015 to 500 ng/mL
GM* MIC (geometric mean) ([5]; S. epidermidis (5), listed as Comp. (9)): <4 ng/mL
fold more active than vancomycin ([5]; S. epidermidis, geometric mean MIC): 435 fold
MIC ([5]; Staphylococcus epidermidis, S. epidermidis (5), read-out: GM* MIC (geometric mean)): 4 ng/mL (≈ 6.39 nM)
MIC range [6]: 60 to 500 ng/mL
MIC ([6]; Streptococcus pneumoniae, read-out: GM* MIC (geometric mean)): 122 ng/mL (≈ 195 nM)
MIC range [7]: 0.015 to 31 ng/mL
MIC ([7]; Moraxella catarrhalis, read-out: GM* MIC (geometric mean)): 0.18 ng/mL (≈ 0.288 nM)
MIC range [8]: 7.5 to 61 ng/mL
MIC ([8]; Haemophilus influenzae, read-out: GM* MIC (geometric mean)): 15 ng/mL (≈ 24 nM)
MIC range [9]: 80 to 600 ng/mL
MIC50 ([9]; Staphylococcus aureus): 80 ng/mL (≈ 128 nM)
MIC90 ([9]; Staphylococcus aureus): 300 ng/mL (≈ 479 nM)
MIC ([10]; read-out: MIC, Comp. (9) plus 4 μg/mL CLA, plus 4 μg/mL lithium clavulanate): 250 ng/mL
MIC ([10]; drug alone, read-out: MIC): 250 ng/mL (≈ 399 nM)
MIC ([10]; plus 8 μg/mL sulbactam, read-out: MIC, Comp. (9) plus 8 μg/mL SBT): 130 ng/mL
MIC [11]: 2 ng/mL (≈ 3.2 nM)
MIC ([11]; read-out: MIC, Comp. (9) plus 8 μg/mL SBT): 16 ng/mL
fold more potent against E. coli/TEM-1 compared with E. coli N ([11]; MIC ratio, Table 4): 128 fold
glucuronidation by human liver microsome [12]: not a substrate of UDP-glucuronosyltransferase
MIC range [13]: 500 to 8000 ng/mL
MIC ([13]; Klebsiella aerogenes, read-out: GM* MIC (geometric mean)): 3360 ng/mL (≈ 5370 nM)
MIC range [14]: ≤ 0.08 µg/mL
MIC range ([14]; listed as Comp. (9)): 0.08-0.08 μg/ml
MIC50 ([14]; Staphylococcus aureus): 80 ng/mL (≈ 128 nM)
MIC90 ([14]; Staphylococcus aureus): 80 ng/mL (≈ 128 nM)
converted to triclosan [15]: ~90%
fold greater potency than vancomycin ([16]; MRSA and vancomycin-resistant S. aureus): at least 85 fold
Geometric mean of MIC ([16]; S. aureus β-lactamase negative (2), listed as Comp. 9): 1410 ng/mL
MIC ([16]; ATCC11632, ATCC 11632, methicillin-sensitive, β-lactamase Neg./Pos., read-out: MIC): 0.015 ng/mL (≈ 0.024 nM)
MIC ([16]; ATCC13301, ATCC 13301, methicillin-sensitive, β-lactamase Positive, read-out: MIC): 0.015 ng/mL (≈ 0.024 nM)
MIC ([16]; ATCC14154, ATCC 14154, methicillin-sensitive, β-lactamase Positive, read-out: MIC): 0.015 ng/mL (≈ 0.024 nM)
MIC ([16]; ATCC33591, ATCC 33591, methicillin-resistant, β-lactamase Positive, read-out: MIC): 0.03 ng/mL (≈ 0.0479 nM)
MIC ([16]; ATCC33592, ATCC 33592, methicillin-sensitive, β-lactamase Positive, read-out: MIC): 0.015 ng/mL (≈ 0.024 nM)
MIC ([16]; ATCC33593, ATCC 33593, methicillin-resistant, β-lactamase Positive, read-out: MIC): 0.015 ng/mL (≈ 0.024 nM)
MIC ([16]; ATCC33594, ATCC 33594, methicillin-sensitive, β-lactamase Positive, read-out: MIC): 0.015 ng/mL (≈ 0.024 nM)
MIC ([16]; ATCC43300, ATCC 43300, methicillin-sensitive, β-lactamase Neg./Pos., read-out: MIC): 0.06 ng/mL (≈ 0.0959 nM)
MIC ([16]; ATCC700260, ATCC 700260, methicillin-sensitive, β-lactamase Positive, read-out: MIC): 0.015 ng/mL (≈ 0.024 nM)
MIC ([16]; ATCC700698, ATCC 700698, methicillin-resistant, β-lactamase Negative, read-out: MIC): 1000 ng/mL (≈ 1600 nM)
MIC ([16]; ATCC700699, ATCC 700699, methicillin-resistant, β-lactamase Negative, read-out: MIC): 2000 ng/mL (≈ 3200 nM)
MIC ([16]; ATCC700787, ATCC 700787, methicillin-resistant, β-lactamase Positive, read-out: MIC): 1000 ng/mL (≈ 1600 nM)
MIC ([16]; ATCC700788, ATCC 700788, methicillin-resistant, β-lactamase Positive, read-out: MIC): 250 ng/mL (≈ 399 nM)
MIC ([16]; ATCC700789, ATCC 700789, methicillin-resistant, β-lactamase Positive, read-out: MIC): 31 ng/mL (≈ 49.5 nM)
MIC ([16]; MRSA, MRSA tested (7), read-out: Geometric mean of MIC): 25 ng/mL (≈ 39.9 nM)
MIC ([16]; MSSA, MSSA tested (7), read-out: Geometric mean of MIC): 0.018 ng/mL (≈ 0.0288 nM)
MIC ([16]; S. aureus (14), read-out: Geometric mean of MIC): 1 ng/mL (≈ 1.6 nM)
MIC ([16]; S. aureus β-lactamase negative (2), read-out: Geometric mean of MIC): 1570 ng/mL (≈ 2510 nM)
MIC ([16]; S. aureus β-lactamase positive (12), read-out: Geometric mean of MIC): 0.19 ng/mL (≈ 0.304 nM)
MIC [17]: > 7000 ng/mL
